Test results as given in patent publication US20120184493A1, “DERMAL FORMULATIONS OF DP2 RECEPTOR ANTAGONISTS” (PANMIRA PHARMACEEUTICALS, LLC, priority 2009, published 2012).

Experiments:
human DP2 receptor = molecular target: T1, human DP2 receptor (Homo sapiens, UniProt Q9Y5Y4); experiment: DP2/CRTH2 radioligand binding assay using [3H]PGD2; conditions: membranes of HEK293 cells expressing recombinant human DP2, 1 nM [3H]PGD2; read-out: hDP2
T1 construct: expressed in transfected cells
T1 sequence (Q9Y5Y4 1-395): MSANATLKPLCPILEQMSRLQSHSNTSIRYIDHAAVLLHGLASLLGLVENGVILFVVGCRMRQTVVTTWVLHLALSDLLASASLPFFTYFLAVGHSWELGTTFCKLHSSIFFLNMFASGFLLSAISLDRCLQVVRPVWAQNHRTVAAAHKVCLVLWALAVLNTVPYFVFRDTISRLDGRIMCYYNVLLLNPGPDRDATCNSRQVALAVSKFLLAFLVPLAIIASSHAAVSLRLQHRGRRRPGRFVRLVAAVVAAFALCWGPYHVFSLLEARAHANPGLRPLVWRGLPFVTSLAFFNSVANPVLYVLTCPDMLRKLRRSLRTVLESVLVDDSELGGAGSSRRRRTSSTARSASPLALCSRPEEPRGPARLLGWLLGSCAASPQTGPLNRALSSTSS
Experimental: The ability of a compound to bind to the human DP2 receptor is assessed via a radioligand binding assay using [^3H]PGD2. HEK293 cells stably expressing recombinant human DP2 are resuspended in 10 mM Hepes, 7.4 containing 1 mM DTT, lysed and centrifuged at 75,000×g to pellet the membranes. The membranes are resuspended in 10 mM Hepes, 7.4 containing 1 mM DTT and 10% glycerol to approximately 5 mg protein/ml. Membranes (2-10 μg protein/well) are incubated in 96-well plates with 1 nM [^3H]PGD2 and test compound in Assay Buffer (50 mM Hepes, 10 mM MnCl2, 1 mM EDTA, plus or minus 0.2% human serum albumin, pH 7.4) for 60 minutes at room temperature. The reactions are terminated by rapid filtration through Whatman GF/C glass fibre filter plates. The filter plates were pre-soaked in 0.33% polythylenimine for 30 minutes at room temperature then washed in Wash Buffer (50 mM Hepes, 0.5 M NaCl pH 7.4) prior to harvesting. After harvesting, the filter plates are washed 3 times with 1 ml cold Wash Buffer then dried. Scintillant is then added to the plates and the radioactivity retained on the filters is determined on a Packard TopCount (Perkin Elmer). Specific binding is determined as total radioactive binding minus non-specific binding in the presence of 10 μM PGD2. IC50s were determined using GraphPad prism analysis of drug titration curves.

human DP1 receptor = molecular target: T2, human DP1 receptor (Homo sapiens, UniProt Q13258); experiment: DP1 radioligand membrane binding assay using [3H]BWA868C; conditions: human platelet membranes, 2 nM [3H]BWA868C; read-out: hDP1
T2 construct: tissue Biological Specialty Corporation; host or cells: human platelets, membrane preparation
T2 sequence (Q13258 1-359): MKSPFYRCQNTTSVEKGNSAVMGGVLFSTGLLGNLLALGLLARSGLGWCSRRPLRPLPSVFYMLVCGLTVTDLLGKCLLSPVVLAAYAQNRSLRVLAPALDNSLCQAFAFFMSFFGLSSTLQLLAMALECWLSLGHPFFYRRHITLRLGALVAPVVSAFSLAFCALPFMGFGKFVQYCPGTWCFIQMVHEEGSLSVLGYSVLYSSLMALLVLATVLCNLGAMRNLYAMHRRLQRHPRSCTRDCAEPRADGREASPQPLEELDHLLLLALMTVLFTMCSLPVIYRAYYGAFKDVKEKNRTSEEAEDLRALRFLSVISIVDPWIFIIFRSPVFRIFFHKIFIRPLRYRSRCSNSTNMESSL
Experimental: The ability of a compound to bind to the human DP1 receptor was evaluated via a radioligand membrane binding assay using the DP1 selective synthetic ligand [^3H]BWA868C. Packed human platelets (Biological Specialty Corporation), were resuspended in 6 volumes of Hepes/HBSS buffer (10 mM Hepes, 1 mM DTT in Hanks Balanced Salt Solution (HBSS)), lysed and centrifuged at 75,000×g to pellet the membranes. Membranes were resuspended in Hepes/HBSS buffer to approximately 12 mg protein/ml. Membranes (20 μg protein/well) are incubated in 96-well plates with 2 nM [^3H]BWA868C and test compound in Assay Buffer (50 mM Hepes, 10 mM MnCl2, 1 mM EDTA, plus or minus 0.2% human serum albumin, pH 7.4) for 60 minutes at room temperature. The reactions are terminated by rapid filtration through Whatman GF/C glass fibre filter plates. The filter plates were pre-soaked in 0.33% polethylenimine for 30 minutes at room temperature then washed in Wash Buffer (50 mM Hepes, 0.5 M NaCl pH 7.4) prior to harvesting. After harvesting, the filter plates are washed 3 times with 1 ml cold Wash Buffer then dried. Scintillant is then added to the plates and the radioactivity retained on the filters is determined on a Packard TopCount (Perkin Elmer). Specific binding is determined as total radioactive binding minus non-specific binding in the presence of 10 μM BW A868C. IC50s were determined using GraphPad prism analysis of drug titration curves.

Structure (SMILES): CCN(Cc1cc(C(F)(F)F)ccc1-c1cncc(CC(=O)O)c1)C(=O)OCc1ccccc1 [(5-{2-[(N-benzyloxycarbonyl-N-ethyl-amino)-methyl]-4-trifluoromethyl-phenyl}-pyridin-3-yl)-acetic acid]
- IC50 (human DP2 receptor): < 300 nM
- IC50 (human DP1 receptor): > 1000 nM

Structure (SMILES): CN(C1CCc2c(c3ncccc3n2CC(=O)O)C1)S(=O)(=O)c1ccc(F)cc1 (stereo not shown) [{8-[(4-fluoro-benzenesulfonyl)-methyl-amino]-6,7,8,9-tetrahydro-pyrido[3,2-b]indol-5-yl}-acetic acid]
- IC50 (human DP2 receptor): < 300 nM
- IC50 (human DP1 receptor): > 1000 nM

Structure (SMILES): COc1ccc(CC(=O)O)cc1Oc1ccc(NC(=O)C(C)(C)C)cc1CSC(C)(C)C [{3-[2-tert-Butylsulfanylmethyl-4-(2,2-dimethyl-propionylamino)-phenoxy]-4-methoxy-phenyl}-acetic acid]
- IC50 (human DP2 receptor): < 300 nM
- IC50 (human DP1 receptor): > 1000 nM

Structure (SMILES): CCOc1ccc(-c2ccc(-c3cc(CC(=O)O)ccc3OC)c(CN(CC)C(=O)C3CC3)c2)cn1 [[2′-[(N-cyclopropanecarbonyl-N-ethyl-amino)-methyl]-4′-(6-ethoxy-pyridin-3-yl)-6-methoxy-biphenyl-3-yl]-acetic acid]
- IC50 (human DP1 receptor): > 1000 nM
